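Cultured in 96-well plates, cells were exposed to test compound for 48 hours across five concentrations. GI50 is the concentration that inhibits growth by half.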 Calls of active or inactive are those of the source. No stated cut-off is given here; in the data, active = GI50 up to about 1.1 µM and inactive = higher.
Tests used:
Assay in all cases: NCI-60 cell line screen, 48 h
OVCAR-4 = system: OVCAR-4
DU-145 = system: DU-145
MDA-MB-231 = system: MDA-MB-231
HOP-62 = system: HOP-62
Hs-578T = system: Hs-578T
K562 = system: K562
NCI-H226 = system: NCI-H226
RPMI-8226 = system: RPMI-8226
EKVX = system: EKVX
OVCAR-3 = system: OVCAR-3
SK-MEL-28 = system: SK-MEL-28
SF-295 = system: SF-295
MDA-N = system: MDA-N
HT-29 = system: HT-29
IGROV-1 = system: IGROV-1
SK-MEL-5 = system: SK-MEL-5
CCRF-CEM = system: CCRF-CEM
MDA-MB-435 = system: MDA-MB-435
HL-60 = system: HL-60

Row | SMILES | GI50 (OVCAR-4) | GI50 (DU-145) | GI50 (MDA-MB-231) | GI50 (HOP-62) | GI50 (Hs-578T) | GI50 (K562) | GI50 (NCI-H226) | GI50 (RPMI-8226) | GI50 (EKVX) | GI50 (OVCAR-3) | GI50 (SK-MEL-28) | GI50 (SF-295) | GI50 (MDA-N) | GI50 (HT-29) | GI50 (IGROV-1) | GI50 (SK-MEL-5) | GI50 (CCRF-CEM) | GI50 (MDA-MB-435) | GI50 (HL-60)
1 | Cc1cn(CCCCCCC2=NCCCN2)c(=O)[nH]c1=O | > 100 µM (inactive) | > 100 µM (inactive) | > 100 µM (inactive) | > 100 µM (inactive) | > 100 µM (inactive) | > 100 µM (inactive) | > 100 µM (inactive) | > 100 µM (inactive) | > 100 µM (inactive) | > 100 µM (inactive) | > 100 µM (inactive) | > 100 µM (inactive) | > 100 µM (inactive) | > 100 µM (inactive) | > 100 µM (inactive) | > 100 µM (inactive) | > 100 µM (inactive) | > 100 µM (inactive) | –
2 | CC(C)C[C@H](NC(=O)[C@H](CCc1ccccc1)NC(=O)c1ccc2ccccc2n1)B(O)O | 0.185 µM (active) | 0.0752 µM (active) | 0.134 µM (active) | 0.176 µM (active) | 0.0245 µM (active) | 0.0439 µM (active) | < 0.01 µM (active) | < 0.01 µM (active) | 0.264 µM (active) | < 0.01 µM (active) | < 0.01 µM (active) | 0.053 µM (active) | < 0.01 µM (active) | < 0.0113 µM (active) | 0.0705 µM (active) | < 0.0136 µM (active) | < 0.01 µM (active) | < 0.01 µM (active) | < 0.01 µM (active)
3 | CCOC(=O)N1CCC(=C2c3ccc(Cl)cc3CCc3cccnc32)CC1 [LORATADINE] | 3.69 µM (inactive) | 11.5 µM (inactive) | 20 µM (inactive) | 15.2 µM (inactive) | 26.9 µM (inactive) | 6.12 µM (inactive) | 14.6 µM (inactive) | 3.83 µM (inactive) | 13.9 µM (inactive) | 7.78 µM (inactive) | 5.57 µM (inactive) | – | 4.55 µM (inactive) | 3.18 µM (inactive) | 1.79 µM (inactive) | 2.08 µM (inactive) | 4.32 µM (inactive) | 8.83 µM (inactive) | 6.12 µM (inactive)
4 | O=C1c2ccccc2-c2c1c(-c1cccc(Br)c1)nc1ccc3ccccc3c21 | > 100 µM (inactive) | > 100 µM (inactive) | > 100 µM (inactive) | > 100 µM (inactive) | 46.9 µM (inactive) | > 100 µM (inactive) | > 100 µM (inactive) | > 100 µM (inactive) | > 100 µM (inactive) | > 100 µM (inactive) | > 100 µM (inactive) | > 100 µM (inactive) | > 100 µM (inactive) | > 100 µM (inactive) | – | – | > 100 µM (inactive) | > 100 µM (inactive) | –
